Reference: patent publication US20060069110A1, “Substituted heterocyclic compounds and methods of use” (priority 2004, published 2006)

System: THP1 cells (LPS induced TNF release)
Experiment: Lipopolysaccharide-Activated THP1 Cell TNF Production Assay
Format: cell-based
Conditions: Homo sapiens, THP-1; THP1 cells, bacterial LPS, secreted TNF-α after 3 h at 37° C.; read-out: IC50 values in the THP1 cell assay (LPS induced TNF release)
Description: Lipopolysaccharide-Activated THP1 Cell TNF Production Assay
THP1 cells are resuspended in fresh THP1 media (RPMI 1640, 10% heat-inactivated FBS, 1×PGS, 1×NEAA, plus 30 μM βME) at a concentration of 1E6/mL. One hundred microliters of cells per well are plated in a polystyrene 96-well tissue culture. One microgram per mL of bacterial LPS is prepared in THP1 media and is transferred to the wells. Test compounds are dissolved in 100% DMSO and are serially diluted 3 fold in a polypropylene 96-well microtiter plate (drug plate). HI control and LO control wells contain only DMSO. One microliter of test compound from the drug plate followed by 10 μL of LPS are transferred to the cell plate. The treated cells are induced to synthesize and secrete TNF-α at 37° C. for 3 h. Forty microliters of conditioned media are transferred to a 96-well polypropylene plate containing 110 μL of ECL buffer (50 mM Tris-HCl pH 8.0, 100 mM NaCl, 0.05% Tween 20, 0.05% NaN3 and 1% FBS) supplemented with 0.44 nM MAB610 monoclonal Ab (R&D Systems), 0.34 nM ruthenylated AF210NA polyclonal Ab (R&D Systems) and 44 μg/mL sheep anti-mouse M280 Dynabeads (Dynal). After a 2 h incubation at RT with shaking, the reaction is read on the ECL M8 Instrument (IGEN Inc.). A low voltage is applied to the ruthenylated TNF-α immune complexes, which in the presence of TPA (the active component in Origlo), results in a cyclical redox reaction generating light at […]. The amount of secreted TNF-α in the presence of compound compared with that in the presence of DMSO vehicle alone (HI control) is calculated using the formula: % control (POC)=(cpd−average LO)/(average HI−average LO)*100. Data (consisting of POC and inhibitor concentration in μM) is fitted to a 4-parameter equation (y=A+((B−A)/(1+((×/C)ôD))), where A is the minimum y (POC) value, B is the maximum y (POC), C is the x (cpd concentration) at the point of inflection and D is the slope factor) using a Levenburg-Marquardt non-linear regression algorithm.

IC50, ≤ 20 µM:
CN(c1ccnc(N[C@H]2CC[C@H](N)CC2)n1)c1nc(-c2ccccc2)ncc1F [Example 67, N^2-(4-Aminocyclohexyl)-N^4-(5-fluoro-2-phenylpyrimidin-4-yl)-N^4-methyl-pyrimidine-2,4-diamine]
C[C@@H](Cc1cccc(CN)c1)Nc1nccc(N(C)c2nc(-c3ccccc3F)ncc2F)n1 [Example 68, N^2-((S)-1-(3-(Aminomethyl)phenyl)propan-2-yl)-N^4-(5-fluoro-2-(2-fluorophenyl)-pyrimidin-4-yl)-N^4-methylpyrimidine-2,4-diamine]
CN(c1nc(NCCc2cccnc2)ncc1F)c1nc(-c2ccccc2)ncc1F [Example 69, 5-Fluoro-N^4-(5-fluoro-2-phenylpyrimidin-4-yl)-N^4-methyl-N^2-(2-(pyridin-3-yl)-ethyl)pyrimidine-2,4-diamine]
CN(c1ccnc(-c2ccccc2)n1)c1nc(NCCc2cccnc2)ncc1F [Example 70, 5-Fluoro-N^4-methyl-N^4-(2-phenylpyrimidin-4-yl)-N^2-(2-(pyridin-3-yl)ethyl)-pyrimidine-2,4-diamine]
CN(c1ccnc(NCCc2cccnc2)n1)c1ccnc(-c2ccccc2F)n1 [Example 71, N^4-(2-(2-Fluorophenyl)pyrimidin-4-yl)-N^4-methyl-N^2-(2-(pyridin-3-yl)ethyl)-pyrimidine-2,4-diamine]
CN(c1ccnc(NCCc2cccnc2)n1)c1ccnc(-c2cccc(F)c2)n1 [Example 72, N^4-(2-(3-Fluorophenyl)pyrimidin-4-yl)-N^4-methyl-N^2-(2-(pyridin-3-yl)ethyl)-pyrimidine-2,4-diamine]
CN(c1ccnc(NCCc2cccnc2)n1)c1ccnc(-c2ccc(F)cc2)n1 [Example 73, N^4-(2-(4-Fluorophenyl)pyrimidin-4-yl)-N^4-methyl-N^2-(2-(pyridin-3-yl)ethyl)-pyrimidine-2,4-diamine]
CN(c1ccnc(NCCc2cccnc2)n1)c1ccnc(-c2ccsc2)n1 [Example 74, N^4-Methyl-N^2-(2-(pyridin-3-yl)ethyl)-N^4-(2-(thiophen-3-yl)pyrimidin-4-yl)-pyrimidine-2,4-diamine]
CN(c1ccnc(NCCc2cccnc2)n1)c1ccnc(-c2ccccc2C(F)(F)F)n1 [Example 75, N^4-Methyl-N^2-(2-(pyridin-3-yl)ethyl)-N^4-(2-(2-(trifluoromethyl)phenyl)pyrimidin-4-yl)pyrimidine-2,4-diamine]
CN(c1ccnc(NCCc2cccnc2)n1)c1ccnc(-c2cccc(F)c2F)n1 [Example 76, N^4-(2-(2,3-Difluorophenyl)pyrimidin-4-yl)-N^4-methyl-N^2-(2-(pyridin-3-yl)ethyl)-pyrimidine-2,4-diamine]
CN(c1ccnc(NCCc2cccnc2)n1)c1ccnc(-c2ccc(F)cc2F)n1 [Example 77, N^4-(2-(2,4-Difluorophenyl)pyrimidin-4-yl)-N^4-methyl-N^2-(2-(pyridin-3-yl)ethyl)-pyrimidine-2,4-diamine]
CN(c1ccnc(NCCc2cccnc2)n1)c1ccnc(-c2cc(F)ccc2F)n1 [Example 78, N^4-(2-(2,5-Difluorophenyl)pyrimidin-4-yl)-N^4-methyl-N^2-(2-(pyridin-3-yl)ethyl)-pyrimidine-2,4-diamine]
CN(c1ccnc(NCCc2cccnc2)n1)c1ccnc(-c2cccs2)n1 [Example 79, N^4-Methyl-N^2-(2-(pyridin-3-yl)ethyl)-N^4-(2-(thiophen-2-yl)pyrimidin-4-yl)-pyrimidine-2,4-diamine]
C[C@@H](Cc1cccc(CN)c1)Nc1nccc(N(C)c2ccnc(-c3ccccc3F)n2)n1 [Example 83, N^2-((S)-1-(3-(Aminomethyl)phenyl)propan-2-yl)-N^4-(2-(2-fluorophenyl)pyrimidin-4-yl)-N^4-methylpyrimidine-2,4-diamine]
C[C@@H](Cc1cccc(CN)c1)Nc1nccc(N(C)c2ccnc(-c3cccc(F)c3)n2)n1 [Example 85, N^2-((S)-1-(3-(Aminomethyl)phenyl)propan-2-yl)-N^4-(2-(3-fluorophenyl)pyrimidin-4-yl)-N^4-methylpyrimidine-2,4-diamine]
C[C@@H](Cc1cccc(CN)c1)Nc1nccc(N(C)c2ccnc(-c3ccc(F)cc3)n2)n1 [Example 87, (S)-N^2-(1-(3-(Aminomethyl)phenyl)propan-2-yl)-N^4-(2-(4-fluorophenyl)pyrimidin-4-yl)-N^4-methylpyrimidine-2,4-diamine]
C[C@@H](Cc1cccc(CN)c1)Nc1nccc(N(C)c2ccnc(-c3ccccc3)n2)n1 [Example 89, (S)-N^2-(1-(3-(Aminomethyl)phenyl)propan-2-yl)-N^4-methyl-N^4-(2-phenylpyrimidin-4-yl)pyrimidine-2,4-diamine]
C[C@@H](Cc1cccc(CN)c1)Nc1nccc(N(C)c2ccnc(-c3ccc(F)cc3F)n2)n1 [Example 91, N^2-((S)-1-(3-(Aminomethyl)phenyl)propan-2-yl)-N^4-(2-(2,4-difluorophenyl)-pyrimidin-4-yl)-N^4-methylpyrimidine-2,4-diamine]
CN(c1ccnc(N[C@H]2CC[C@H](N)CC2)n1)c1ccnc(-c2ccccc2F)n1 [Example 93, N^2-(4-Aminocyclohexyl)-N^4-(2-(2-fluorophenyl)pyrimidin-4-yl)-N^4-methyl-pyrimidine-2,4-diamine]
CN(c1ccnc(NCCN2CCOCC2)n1)c1ccnc(-c2ccccc2)n1 [Example 96, N^4-Methyl-N^2-(2-morpholinoethyl)-N^4-(2-phenylpyrimidin-4-yl)pyrimidine-2,4-diamine]
CCOC(=O)c1cnc(-c2ccccc2)nc1Nc1ccnc(NCCc2ccccn2)n1 [Example 98, Ethyl 2-phenyl-4-(2-(2-(pyridin-2-yl)ethylamino)pyrimidin-4-ylamino)pyrimidine-5-carboxylate]
CNC(=O)c1cnc(-c2ccccc2)nc1Nc1ccnc(NCCc2ccccn2)n1 [Example 99, N-Methyl-2-phenyl-4-(2-(2-(pyridin-2-yl)ethylamino)pyrimidin-4-ylamino)-pyrimidine-5-carboxamide]
CNC(=O)c1cnc(-c2ccccc2)nc1Nc1ccnc(NCCc2cccnc2)n1 [Example 101, N-Methyl-2-phenyl-4-(2-(2-(pyridin-3-yl)ethylamino)pyrimidin-4-ylamino)-pyrimidine-5-carboxamide]
COc1ccccc1-c1nccc(N(C)c2ccnc(NCCc3cccnc3)n2)n1 [Example 104, N^4-(2-(2-Methoxyphenyl)pyrimidin-4-yl)-N^4-methyl-N^2-(2-(pyridin-3-yl)ethyl)-pyrimidine-2,4-diamine]
Cc1ccccc1-c1nccc(N(C)c2ccnc(NCCc3cccnc3)n2)n1 [Example 105, N^4-Methyl-N^2-(2-(pyridin-3-yl)ethyl)-N^4-(2-o-tolylpyrimidin-4-yl)pyrimidine-2,4-diamine]
CN(c1ccnc(NCCc2ccccc2)n1)c1ccnc(-c2ccccc2)n1 [Example 106, N^4-Methyl-N^2-phenethyl-N^4-(2-phenylpyrimidin-4-yl)pyrimidine-2,4-diamine]
CN(c1ccnc(NCCc2ccccn2)n1)c1ccnc(-c2ccccc2)n1 [Example 107, N^4-Methyl-N^4-(2-phenylpyrimidin-4-yl)-N^2-(2-(pyridin-2-yl)ethyl)pyrimidine-2,4-diamine]
